For the assay, the target named is Carbonic anhydrase 9 (Homo sapiens, UniProt Q16790).
As usually defined, the Ki is the equilibrium dissociation constant of an inhibitor or competing ligand from its target. A high value points to weaker binding. The compound `CC(=O)OC[C@H]1O[C@@H](S(=O)(=O)Cc2cn(-c3ccc(S(N)(=O)=O)cc3)nn2)[C@H](OC(C)=O)[C@@H](OC(C)=O)[C@@H]1OC(C)=O` had a Ki of 9.3 nM.
In the case of `NS(=O)(=O)c1ccc(-n2cc(CS(=O)(=O)[C@@H]3O[C@H](CO)[C@H](O)[C@H](O)[C@H]3O)nn2)cc1` it was 8.1 nM; in that of `NS(=O)(=O)c1ccc(-n2cc(C[S+]([O-])[C@@H]3O[C@H](CO)[C@H](O)[C@H](O)[C@H]3O)nn2)cc1` (stereo not given in full), 8 nM; in that of `NS(=O)(=O)c1ccc(-n2cc(CS[C@@H]3O[C@H](CO)[C@@H](O)[C@H](O)[C@H]3O)nn2)cc1`, 257 nM.
Under `NS(=O)(=O)c1ccc(-n2cc(CS(=O)(=O)[C@@H]3O[C@H](CO)[C@@H](O)[C@H](O)[C@H]3O)nn2)cc1` stands 9.5 nM; under `NS(=O)(=O)c1ccc(-n2cc(CS[C@@H]3O[C@H](CO)[C@H](O)[C@H](O)[C@H]3O)nn2)cc1`, 6.1 nM; under `CC(=O)OC[C@H]1O[C@@H](S(=O)(=O)Cc2cn(-c3ccc(S(N)(=O)=O)cc3)nn2)[C@H](OC(C)=O)[C@@H](OC(C)=O)[C@H]1OC(C)=O`, 7.5 nM.
Compound `CC(=O)OC[C@H]1O[C@@H](SCc2cn(-c3ccc(S(N)(=O)=O)cc3)nn2)[C@H](OC(C)=O)[C@@H](OC(C)=O)[C@H]1OC(C)=O` returned a Ki of 8.6 nM.
Under `CC(=O)OC[C@H]1O[C@@H](SCc2cn(-c3ccc(S(N)(=O)=O)cc3)nn2)[C@H](OC(C)=O)[C@@H](OC(C)=O)[C@@H]1OC(C)=O` stands 8.6 nM; under `NS(=O)(=O)c1ccc(-n2cc(C[S+]([O-])[C@@H]3O[C@H](CO)[C@@H](O)[C@H](O)[C@H]3O)nn2)cc1` (stereo not given in full), 9.8 nM.
